Columns and labels:
Rattus norvegicus [1] = experiment: Antipyretic activity against yeast-induced hyperpyrexia in hyperthermic rat assessed as rectal temperature at 100 mg/kg, sc administered 18 hrs after yeast challenge measured after 2 hrs (Rvb=39.11 +/- 0.26 degC); type: functional; conditions: route subcutaneous
Rattus norvegicus [2] = experiment: Antipyretic activity against yeast-induced hyperpyrexia in hyperthermic rat assessed as rectal temperature at 100 mg/kg, sc administered 18 hrs after yeast challenge measured after 3 hrs (Rvb=39.20 +/- 0.24 degC); type: functional; conditions: route subcutaneous
Rattus norvegicus [3] = experiment: Antipyretic activity against yeast-induced hyperpyrexia in hyperthermic rat assessed as rectal temperature at 100 mg/kg, sc administered 18 hrs after yeast challenge measured after 4 hrs (Rvb=39.17 +/- 0.20 degC); type: functional; conditions: route subcutaneous
Rattus norvegicus [4] = experiment: Antipyretic activity against yeast-induced hyperpyrexia in hyperthermic rat assessed as rectal temperature at 100 mg/kg, sc administered 18 hrs after yeast challenge measured after 1 hr (Rvb=39.24 +/- 0.22 degC); type: functional; conditions: route subcutaneous
Mus musculus [5] = experiment: Analgesic activity in mouse assessed as protection against acetic acid-induced writhing at 5 mg/kg, sc administered 30 mins before acetic acid challenge measured after 3 hrs relative to control; type: functional; conditions: route subcutaneous
Mus musculus [6] = experiment: Analgesic activity in mouse assessed as protection against acetic acid-induced writhing at 5 mg/kg, sc administered 30 mins before acetic acid challenge measured after 4 hrs relative to control; type: functional; conditions: route subcutaneous
Mus musculus [7] = experiment: Analgesic activity in mouse assessed as protection against acetic acid-induced writhing at 5 mg/kg, sc administered 30 mins before acetic acid challenge measured after 1 hr relative to control; type: functional; conditions: route subcutaneous
Mus musculus [8] = experiment: Analgesic activity in mouse assessed as protection against acetic acid-induced writhing at 5 mg/kg, sc administered 30 mins before acetic acid challenge measured after 2 hrs relative to control; type: functional; conditions: route subcutaneous
Rattus norvegicus [9] = experiment: Antiinflammatory activity against carrageenan-induced foot paw edema in rat assessed as reduction in paw size at 20 mg/kg, sc administered 30 mins before carrageenan challenge measured after 3 hrs relative to control; type: functional; parameters: scale not given: the % may be the effect or the level left; conditions: route subcutaneous
Rattus norvegicus [10] = experiment: Antipyretic activity against yeast-induced hyperpyrexia in hyperthermic rat assessed as rectal temperature at one-tenth of LD50 administered subcutaneously 18 hrs after yeast challenge measured after 4 hrs (Rvb=39.17 +/- 0.20 degC); type: functional
[11] = Toxicity in sc dosed albino mouse up to 24 hrs; type: organism-based; conditions: in vivo
Rattus norvegicus [12] = experiment: Antipyretic activity against yeast-induced hyperpyrexia in hyperthermic rat assessed as rectal temperature at one-tenth of LD50 administered subcutaneously 18 hrs after yeast challenge measured after 1 hr (Rvb=39.24 +/- 0.22 degC); type: functional
Mus musculus [13] = experiment: Analgesic activity in mouse assessed as protection against acetic acid-induced writhing at one-tenth of LD50 administered subcutaneously 30 mins before acetic acid challenge measured after 2 hrs relative to control; type: functional
Mus musculus [14] = experiment: Analgesic activity in mouse assessed as protection against acetic acid-induced writhing at one-tenth of LD50 administered subcutaneously 30 mins before acetic acid challenge measured after 4 hrs relative to control; type: functional
Rattus norvegicus [15] = experiment: Antipyretic activity against yeast-induced hyperpyrexia in hyperthermic rat assessed as rectal temperature at one-tenth of LD50 administered subcutaneously 18 hrs after yeast challenge measured after 3 hrs (Rvb=39.20 +/- 0.24 degC); type: functional
Rattus norvegicus [16] = experiment: Antiinflammatory activity against carrageenan-induced foot paw edema in rat assessed as reduction in paw size at one-tenth of LD50 administered subcutaneously 30 mins before carrageenan challenge measured after 3 hrs relative to control; type: functional; parameters: scale not given: the % may be the effect or the level left
Mus musculus [17] = experiment: Analgesic activity in mouse assessed as protection against acetic acid-induced writhing at one-tenth of LD50 administered subcutaneously 30 mins before acetic acid challenge measured after 3 hrs relative to control; type: functional
Rattus norvegicus [18] = experiment: Antipyretic activity against yeast-induced hyperpyrexia in hyperthermic rat assessed as rectal temperature at one-tenth of LD50 administered subcutaneously 18 hrs after yeast challenge measured after 2 hrs (Rvb=39.11 +/- 0.26 degC); type: functional
Mus musculus [19] = experiment: Analgesic activity in mouse assessed as protection against acetic acid-induced writhing at one-tenth of LD50 administered subcutaneously 30 mins before acetic acid challenge measured after 1 hr relative to control; type: functional

| Compound | Activity (Rattus norvegicus [1]) | Activity (Rattus norvegicus [2]) | Activity (Rattus norvegicus [3]) | Activity (Rattus norvegicus [4]) | Activity (Mus musculus [5]) | Activity (Mus musculus [6]) | Activity (Mus musculus [7]) | Activity (Mus musculus [8]) | Activity (Rattus norvegicus [9]) | Activity (Rattus norvegicus [10]) | LD50 at 24 h [11] | Activity (Rattus norvegicus [12]) | Activity (Mus musculus [13]) | Activity (Mus musculus [14]) | Activity (Rattus norvegicus [15]) | Activity (Rattus norvegicus [16]) | Activity (Mus musculus [17]) | Activity (Rattus norvegicus [18]) | Activity (Mus musculus [19]) |
| --- | --- | --- | --- | --- | --- | --- | --- | --- | --- | --- | --- | --- | --- | --- | --- | --- | --- | --- | --- |
| CC(=O)Nc1ccc(O)cc1 [ACETAMINOPHEN] | 37.2 °C | 37.27 °C | 37.16 °C | 37.38 °C |  |  |  |  |  |  |  |  |  |  |  |  |  |  |  |
| O=C([O-])Cc1ccccc1Nc1c(Cl)cccc1Cl.[Na+] [DICLOFENAC SODIUM] |  |  |  |  | 68.44% | 55.82% | 74.02% | 75.24% |  |  |  |  |  |  |  |  |  |  |  |
| Cc1ccc(-c2cc(C(F)(F)F)nn2-c2ccc(S(N)(=O)=O)cc2)cc1 [CELECOXIB] |  |  |  |  |  |  |  |  | 39.67% |  |  |  |  |  |  |  |  |  |  |
| C/C(=N\Nc1ccc([N+](=O)[O-])cc1[N+](=O)[O-])c1c(O)ccc2c(-c3ccccc3)cc(=O)oc12 |  |  |  |  |  |  |  |  |  | 38.93 °C | 370 mg/kg | 38.42 °C | 18.35% | 4.47% | 38.34 °C | 0.67% | 13.41% | 38.05 °C | 16.7% |
| O=C(/C=C/c1ccc(Cl)cc1)c1c(O)ccc2c(-c3ccccc3)cc(=O)oc12 |  |  |  |  |  |  |  |  |  | 38.91 °C | 330 mg/kg | 39.05 °C | 0.94% | 0.94% | 38.84 °C | 20.27% | 1.65% | 38.91 °C | 0% |
| CN(C)c1ccc(C2CC(c3c(O)ccc4c(-c5ccccc5)cc(=O)oc34)=NN2)cc1 (centres undefined) |  |  |  |  |  |  |  |  |  | 38.91 °C | 310 mg/kg | 38.91 °C | 1.64% | 2.11% | 38.91 °C | 8.7% | 2.35% | 38.9 °C | 1.41% |
| CN(C)c1ccc(C2CC(c3c(O)ccc4c(-c5ccccc5)cc(=O)oc34)=NN2c2ccc([N+](=O)[O-])cc2[N+](=O)[O-])cc1 (centres undefined) |  |  |  |  |  |  |  |  |  | 38.91 °C | 330 mg/kg | 38.54 °C | 35.29% | 7.29% | 38.42 °C | 17.06% | 19.05% | 38.1 °C | 36.94% |
| C/C(=N\Nc1ccccc1)c1c(O)ccc2c(-c3ccccc3)cc(=O)oc12 |  |  |  |  |  |  |  |  |  | 38.91 °C | 290 mg/kg | 39.11 °C | 2.58% | 1.17% | 38.91 °C | 12.35% | 2.81% | 38.81 °C | 3.75% |
